Source: PubChem BioAssay AID1549 (Sanford-Burnham Center for Chemical Genomics, 2009)
Calls of active or inactive are those of the source. The rule behind the calls is not given here.

target: Influenza A virus M2 proton channel (A/TW/4845/1999 H1N1); experiment: NMR binding screen, influenza A virus M2 proton channel, Kd (AID 1549); details: M2 protein

SMILES | Kd
O=C(CNC(=O)c1ccc(F)cc1)NC1=NCCS1 | > 4 mM (inactive)
O=C(O[C@@H]1Cc2c(O)cc(O)cc2O[C@@H]1c1ccc(O)c(O)c1)c1cc(O)c(O)c(O)c1 | > 4 mM (inactive)
c1cc2n(c1)CCNC2c1ccncc1 (stereo unspecified) | > 4 mM (inactive)
NC(=O)C(=O)NCc1ccc(Cl)cc1 | > 4 mM (inactive)
CC(=O)Nc1ccc(NC(=O)/C=C\C(=O)O)cc1 | > 4 mM (inactive)
COc1ccccc1NC(=O)CCC(=O)O | > 4 mM (inactive)
Cc1cc2c(=O)n(C)c(SCC(N)=O)nc2s1 | > 4 mM (inactive)
O=C(O)c1csc(-c2cccnc2)n1 | > 4 mM (inactive)
Nc1nnc(COc2cccc(C(F)(F)F)c2)s1 | > 4 mM (inactive)
NC(=O)COc1ccccc1O | > 4 mM (inactive)
CCCCn1c(S(=O)(=O)O)nc2ccccc21 | > 4 mM (inactive)
CC1=C(C(N)=O)C(c2ccco2)C(C(N)=O)=C(C)N1 | > 4 mM (inactive)
CC(=O)NC(=S)Nc1ccc(N(C)C(C)=O)cc1 | > 4 mM (inactive)
O=C(Nc1ccccc1)c1cnc2n(c1=O)CCS2 | > 4 mM (inactive)
COc1c(C(C)C)oc2cc3oc(=O)ccc3cc12 | > 4 mM (inactive)
O=c1nc(C(F)(F)F)nc2ccccn12 | > 4 mM (inactive)
CC(C)Nc1ncnc2c1nnn2C | > 4 mM (inactive)
CCOc1ccc(-c2c(=O)n(O)c3ccccc3[n+]2[O-])cc1 | > 4 mM (inactive)
Nc1ccc(N2CCOCC2)cc1 | > 4 mM (inactive)
Cc1cc(C(=O)NCc2ccco2)cs1 | > 4 mM (inactive)
CN(C)C(=S)Nc1ccccc1N1CCOCC1 | > 4 mM (inactive)
c1ccc2[nH]c(CCn3cncn3)nc2c1 | > 4 mM (inactive)
Cn1cnc2c(=S)[nH]c(=O)n(Cc3ccccc3)c21 | > 4 mM (inactive)
COc1cc([C@@H]2c3cc4c(c(O)c3C[C@H]3COC(=O)[C@@H]32)OCO4)cc(OC)c1OC | > 4 mM (inactive)

SMILES | Kd
Cc1[nH]n(-c2ccccc2)c(=O)c1[N+](=O)[O-] | > 4 mM (inactive)
Cn1nnc2cc(C(=O)NCc3ccco3)ccc21 | > 4 mM (inactive)
O=C(O)c1ccccc1C(=O)NCC1CCCO1 (stereo unspecified) | > 4 mM (inactive)
Cc1cc(Cl)ccc1NC(=O)C(N)=O | > 4 mM (inactive)
CC(=O)Nc1ccc(N2CCOCC2)cc1 | > 4 mM (inactive)
CCCS(=O)(=O)N1CCN(c2ccccc2F)CC1 | > 4 mM (inactive)
Clc1ccc(-n2ccnc2)nn1 | > 4 mM (inactive)
Cc1ccc(CCNc2ccccc2)c[n+]1[O-] | > 4 mM (inactive)
NCc1cccc2c1OCCCO2 | > 4 mM (inactive)
COCC(=O)Nc1cccc2ccccc12 | > 4 mM (inactive)
Cc1ccc(C(=O)N2CCC(C(N)=O)CC2)cc1C | > 4 mM (inactive)
Cc1cc(C)n2c(SCc3c(C)noc3C)nnc2n1 | > 4 mM (inactive)
Cc1ccc2cccc(OC(=O)N3CCCC3)c2n1 | > 4 mM (inactive)
Cn1cnc2ccc([N+](=O)[O-])cc2c1=O | > 4 mM (inactive)
CNC(=O)C(=O)Nc1cccc(Cl)c1 | > 4 mM (inactive)
Cc1oc(-c2ccccc2)cc1CO | > 4 mM (inactive)
COc1ccccc1-c1cn[nH]c(=S)n1 | > 4 mM (inactive)
Cc1cc2ncc(C(=O)O)c(C)n2n1 | > 4 mM (inactive)
C1CCN2C[C@@H]3C[C@H](CN4CCCC[C@@H]34)[C@H]2C1 | > 4 mM (inactive)
O=S1(=O)CCC(NC(=S)Nc2ccccn2)C1 (stereo unspecified) | > 4 mM (inactive)
Cc1ccnc(NS(=O)(=O)c2cccs2)c1 | > 4 mM (inactive)
N#Cc1sc2nc3c(c(-c4cccnc4)c2c1N)CCC3 | > 4 mM (inactive)
COC(=O)c1oc2ccc(Cl)cc2c1NC(C)=O | > 4 mM (inactive)
CCN(CC)S(=O)(=O)c1cccc2nsnc12 | > 4 mM (inactive)

SMILES | Kd
S=c1[nH]nc(-c2cccnc2)n1Cc1ccccc1 | > 4 mM (inactive)
Cc1cc(C)n(C2CCS(=O)(=O)C2)n1 (stereo unspecified) | > 4 mM (inactive)
COc1cc2c(cc1OC)[C@@H]1C(=O)c3ccc4c(c3O[C@@H]1CO2)C=CC(C)(C)O4 | > 4 mM (inactive)
O=c1cccc2n1CC1CC2CN2CCCC[C@@H]12 (stereo partly specified) | > 4 mM (inactive)
COc1cc(OC)c2c(OC)c(-c3ccc4c(c3)OCO4)c(=O)oc2c1 | > 4 mM (inactive)
O=C(O)CNC(=O)c1ccc([N+](=O)[O-])cc1 | > 4 mM (inactive)
COC(=O)c1cnccc1C(F)(F)F | > 4 mM (inactive)
Cc1ccc(F)cc1NC(=O)c1ccc2c(c1)OCO2 | > 4 mM (inactive)
CCOC(=O)c1c(C)cc(O)cc1O | > 4 mM (inactive)
O=c1c2c(nc3nc(COc4ccccc4)[nH]n13)CCC2 | > 4 mM (inactive)
O=C(c1ccccc1)c1ccccc1C(=O)N1CCCC1 | > 4 mM (inactive)
CC(=O)O[C@H]1CC[C@@]2(C)C(CC[C@]3(C)C2C(=O)C=C2C4[C@@H](C)[C@H](C)CC[C@]4(C(=O)O)CC[C@]23C)C1(C)C (stereo partly specified) | > 4 mM (inactive)
CCC(C)C(NC)C(=O)O (stereo unspecified) | > 4 mM (inactive)
CCOC(=O)c1c(SC)nc(=O)[nH]c1C | > 4 mM (inactive)
Cc1ccc(SCc2cc(=O)n3[nH]cnc3n2)cc1 | > 4 mM (inactive)
CS(=O)(=O)N1CCN(C(=O)c2ccccc2F)CC1 | > 4 mM (inactive)
COc1ccc(-c2cc(=O)c3ccccc3o2)cc1OC | > 4 mM (inactive)
NC(C(=O)O)C(O)c1ccccc1 (stereo unspecified) | > 4 mM (inactive)
O=c1oc2c(O)c(O)cc3c(=O)oc4c(O)c(O)cc1c4c23 | > 4 mM (inactive)
CNC(=O)C1COc2ccccc2O1 (stereo unspecified) | > 4 mM (inactive)
O=C(Nc1cccc(Cl)c1)c1ccncc1 | > 4 mM (inactive)
O=C(Nn1cnnc1)c1cccc(C(F)(F)F)c1 | > 4 mM (inactive)
O=C1C2CC=CCC2C(=O)N1c1cccc(O)c1 (stereo unspecified) | > 4 mM (inactive)
O=c1[nH]nnc2sc3c(c12)CCCC3 | > 4 mM (inactive)

SMILES | Kd
Cc1c(-c2ccccc2)[n+](=O)c(-c2ccco2)c(C)n1[O-] | > 4 mM (inactive)
CC(=O)c1c(O)c(C)c(O)c2c1OC1=CC(=O)C(C(C)=O)C(=O)C12C (stereo unspecified) | > 4 mM (inactive)
CC12CCC(O)CC1CCC1C2[C@H](O)CC2(C)C(C3=CC(=O)OC3)CCC12O (stereo partly specified) | > 4 mM (inactive)
OCC1Cc2ccccc2CN1 (stereo unspecified) | > 4 mM (inactive)
COC(=O)C[C@H]1C(C)(C)C(=O)[C@@H]2CC3=C4CC(=O)O[C@@H](c5ccoc5)[C@]4(C)CCC3C1(C)C2=O (stereo partly specified) | > 4 mM (inactive)
CSc1ccc(C2NC(=O)CCC2[N+](=O)[O-])cc1 (stereo unspecified) | > 4 mM (inactive)
CC1(C)C=Cc2c(cc3occ(-c4ccc5c(c4)OCO5)c(=O)c3c2O)O1 | > 4 mM (inactive)
Cc1cccn2cc(CNc3ccccc3)nc12 | > 4 mM (inactive)
CC(C)CCCC(C)C1CCC2C3CC(=O)[C@H]4C[C@@H](O)CC[C@]4(C)C3CC[C@]12C (stereo partly specified) | > 4 mM (inactive)
CC(C)CNc1cc(=O)n(C)c(=O)n1C | > 4 mM (inactive)
CCc1sc(C(=O)NC)cc1Br | > 4 mM (inactive)
CCSc1nnc(-c2ccccc2N)c(=O)[nH]1 | > 4 mM (inactive)
CC1=NNC(=O)C1CCc1ccncc1 (stereo unspecified) | > 4 mM (inactive)
NS(=O)(=O)c1ccc(F)cc1 | > 4 mM (inactive)
Cn1c(=O)c2[nH]cnc2n(-c2ccccc2)c1=O | > 4 mM (inactive)
Cc1[nH]c2ccccc2c1CN(C)C | > 4 mM (inactive)
CN(C)c1nc(N)nc(Cn2ccnc2)n1 | > 4 mM (inactive)
Cc1ccc2c(c1)CCCN2C(=O)c1c(C)noc1C | > 4 mM (inactive)
CC(=O)C1CCC2C3CCC4C[C@H](O)CCC4(C)C3C[C@H](O)C12C (stereo partly specified) | > 4 mM (inactive)
NC(=O)CSc1ccc(-c2ccccc2)nn1 | > 4 mM (inactive)
CC(=O)OC/C=C(\C)CC/C=C(\C)CC/C=C(\C)CC/C=C(\C)CC/C=C(\C)CC/C=C(\C)CC/C=C(\C)CC/C=C(\C)CCC=C(C)C | > 4 mM (inactive)
CC(C)(C)c1cc(NC(=O)c2cccnc2)no1 | > 4 mM (inactive)
O=C(O)c1ccc(NC(=O)c2cccs2)cc1 | > 4 mM (inactive)
CC(=O)Nn1cc2c(=O)n(C)c(=O)n(C)c2c1 | > 4 mM (inactive)

SMILES | Kd
Cc1cc(NC(=O)CSc2nncn2C)no1 | > 4 mM (inactive)
OC(c1ccccc1)c1ccccn1 (stereo unspecified) | > 4 mM (inactive)
CC(=O)Oc1cccc2ccc(=O)[nH]c12 | > 4 mM (inactive)
CC(=O)NC12CC3CC(CC(O)(C3)C1)C2 | > 4 mM (inactive)
Cn1cccc1C(=O)NS(=O)(=O)c1ccccc1Cl | > 4 mM (inactive)
CCn1nnnc1Oc1ccc(Cl)cc1 | > 4 mM (inactive)
O=C(O)C1(O)C[C@@H](O)C(O)[C@H](O)C1 (stereo partly specified) | > 4 mM (inactive)
CC(C)C(C)/C=C/C(C)[C@H]1CCC2C3=CCC4CC(=O)CC[C@]4(C)C3CC[C@@]21C (stereo partly specified) | > 4 mM (inactive)
COc1ccccc1NS(=O)(=O)c1c[nH]c(=O)[nH]c1=O | > 4 mM (inactive)
COC(=O)CCC(C)C1CCC2C3CCC4C[C@H](O)CC[C@]4(C)C3C[C@H](O)[C@]12C (stereo partly specified) | > 4 mM (inactive)
OCC1Cc2ccccc2N1 (stereo unspecified) | > 4 mM (inactive)
CC(=O)N1CCN(c2ccc(N)cc2)CC1 | > 4 mM (inactive)
Cc1c(C(=O)NC2=NCCS2)oc2ccccc12 | > 4 mM (inactive)
Cn1ncc2c(=O)n(CC(=O)c3ccccc3)cnc21 | > 4 mM (inactive)
O=C(O)C1CC(=O)N(CCc2ccc(Cl)cc2)C1 (stereo unspecified) | > 4 mM (inactive)
CC1(C)C=Cc2cc3ccc(=O)oc3cc2O1 | > 4 mM (inactive)
CCNC(=S)N1CCC(C(N)=O)CC1 | > 4 mM (inactive)
O=S1(=O)C=CC(N2CCCCC2)C1 (stereo unspecified) | > 4 mM (inactive)
C=CCSc1[nH]c(=O)cc(C)c1C(N)=O | > 4 mM (inactive)
CC(=O)O[C@H]1CCC2(C)C3=C(CCC2C1(C)C)[C@@]1(C)CC[C@@H](C(C)CCC=C(C)C)[C@]1(C)CC3 (stereo partly specified) | > 4 mM (inactive)
